Target: LSD1 (Homo sapiens (Human), UniProt O60341)
Assay: LSD1 Histone Demethylase Biochemical Assay (LANCE LSD1/KDM1A demethylase assay)
Conditions: 1 nM LSD-1 enzyme, 1 hour preincubation at 25° C., 0.4 μM Biotin-labeled Histone H3 peptide substrate
Method: LSD1 Histone Demethylase Biochemical Assay
LANCE LSD1/KDM1A demethylase assay-10 μL of 1 nM LSD-1 enzyme (ENZO BML-SE544-0050) in the assay buffer (50 mM Tris, pH 7.5, 0.01% Tween-20, 25 mM NaCl, 5 mM DTT) were preincubated for 1 hour at 25° C. with 0.8 μL compound/DMSO dotted in black 384 well polystyrene plates. […] Reactions were stopped by addition of 10 μL 1× LANCE Detection Buffer (PerkinElmer CR97-100) supplemented with 1.5 nM Eu-anti-unmodified H3K4 Antibody (PerkinElmer TRF0404), and 225 nM LANCE Ultra Streptavidin (PerkinElmer TRF102) along with 0.9 mM Tranylcypromine-HCl (Millipore 616431). After stopping the reactions plates were incubated for 30 minutes and read on a PHERAstar FS plate reader (BMG Labtech).

Row | SMILES | IC50
1 | Cc1ccc(-c2c(-c3ccc(F)cc3)cc(OC[C@@H]3CCNC3)c3cncn23)cc1 [Example 2, 6-(4-fluorophenyl)-5-(4-methylphenyl)-8-[(3R)-pyrrolidin-3-ylmethoxy]imidazo[1,5-a]pyridine] | 500 to 1000 nM
2 | N#Cc1ccc(-c2cc(OC[C@@H]3CCNC3)c3cncn3c2-c2ccc(Cl)cc2)cc1 [Example 6, 4-{5-(4-chlorophenyl)-8-[(3R)-pyrrolidin-3-ylmethoxy]imidazo[1,5-a]pyridin-6-yl}benzonitrile] | 50 to 100 nM
3 | N#Cc1ccc(-c2cc(OC[C@@H]3CCNC3)c3cncn3c2-c2cnn(C3CCC3)c2)cc1 [Example 7, 4-{5-(1-cyclobutyl-1H-pyrazol-4-yl)-8-[(3R)-pyrrolidin-3-ylmethoxy]imidazo[1,5-a]pyridin-6-yl}benzonitrile] | 50 to 100 nM
4 | CC(C)(C)OC(=O)N1CC=C(c2c(-c3ccc(C#N)cc3)cc(OC[C@@H]3CCNC3)c3cncn23)CC1 [Example 10, tert-butyl 4-{6-(4-cyanophenyl)-8-[(3R)-pyrrolidin-3-ylmethoxy]imidazo[1,5-a]pyridin-5-yl}-3,6-dihydropyridine-1(2H)-carboxylate] | 100 to 500 nM
5 | N#Cc1ccc(-c2cc(OC[C@@H]3CCNC3)c3cncn3c2-c2ccc(N3CCOCC3)cc2)cc1 [Example 13, 4-{5-(4-morpholin-4-ylphenyl)-8-[(3R)-pyrrolidin-3-ylmethoxy]imidazo[1,5-a]pyridin-6-yl}benzonitrile] | 50 to 100 nM
6 | N#Cc1ccc(-c2cc(OC[C@@H]3CCNC3)c3cncn3c2-c2ccc(CN3CCOCC3)cc2)cc1 [Example 17, 4-{5-[4-(morpholin-4-ylmethyl)phenyl]-8-[(3R)-pyrrolidin-3-ylmethoxy]imidazo[1,5-a]pyridin-6-yl}benzonitrile] | 50 to 100 nM
7 | CN1CCC[C@@H](COc2nc(-c3ccc(C#N)cc3)c(-c3ccc4c(c3)oc(=O)n4C)n3cncc23)C1 [Example 21, 4-(5-(3-methyl-2-oxo-2,3-dihydro-1,3-benzoxazol-6-yl)-8-{[(3R)-1-methylpiperidin-3-yl]methoxy}imidazo[1,5-a]pyrazin-6-yl)benzonitrile] | 50 to 100 nM
8 | CN1CCC[C@@H](COc2nc(-c3ccc(C#N)cc3)c(-c3ccc4c(c3)CC(=O)N4C)n3cncc23)C1 [Example 22, 4-(5-(1-methyl-2-oxo-2,3-dihydro-1H-indol-5-yl)-8-{[(3R)-1-methylpiperidin-3-yl]methoxy}imidazo[1,5-a]pyrazin-6-yl)benzonitrile] | 100 to 500 nM
9 | CN1CCC[C@@H](COc2nc(-c3ccc(C#N)cc3)c(-c3ccc4c(c3)CCC(=O)N4C)n3cncc23)C1 [Example 24, 4-(5-(1-methyl-2-oxo-1,2,3,4-tetrahydroquinolin-6-yl)-8-{[(3R)-1-methylpiperidin-3-yl]methoxy}imidazo[1,5-a]pyrazin-6-yl)benzonitrile] | 100 to 500 nM
10 | CN1CCC[C@@H](COc2nc(-c3ccc(C#N)cc3)c(-c3ccc4c(c3)OCC(=O)N4C)n3cncc23)C1 [Example 25, 4-(5-(4-methyl-3-oxo-3,4-dihydro-2H-1,4-benzoxazin-7-yl)-8-{[(3R)-1-methylpiperidin-3-yl]methoxy}imidazo[1,5-a]pyrazin-6-yl)benzonitrile] | 50 to 100 nM
11 | CN1CCC[C@@H](COc2nc(-c3ccc(C#N)cc3)c(-c3ccc4c(c3)n(C)c(=O)n4C)n3cncc23)C1 [Example 26, 4-(5-(1,3-dimethyl-2-oxo-2,3-dihydro-1H-benzimidazol-5-yl)-8-{[(3R)-1-methylpiperidin-3-yl]methoxy}imidazo[1,5-a]pyrazin-6-yl)benzonitrile] | 100 to 500 nM
12 | CN1CCC[C@@H](COc2nc(-c3ccc(C#N)cc3)c(-c3cnc4c(cnn4C)c3)n3cncc23)C1 [Example 27, 4-[8-{[(3R)-1-methylpiperidin-3-yl]methoxy}-5-(1-methyl-1H-pyrazolo[3,4-b]pyridin-5-yl)imidazo[1,5-a]pyrazin-6-yl]benzonitrile] | 50 to 100 nM
13 | CN1CCC[C@@H](COc2nc(-c3ccc(C#N)cc3)c(-c3ccc4ncccc4c3)n3cncc23)C1 [Example 31, 4-(8-{[(3R)-1-methylpiperidin-3-yl]methoxy}-5-quinolin-6-ylimidazo[1,5-a]pyrazin-6-yl)benzonitrile] | 50 to 100 nM
14 | Cc1nn(C)c2ccc(-c3c(-c4ccc(C#N)cc4)nc(OC[C@@H]4CCCN(C)C4)c4cncn34)cc12 [Example 32, 4-(5-(1,3-dimethyl-1H-indazol-5-yl)-8-{[(3R)-1-methylpiperidin-3-yl]methoxy}imidazo[1,5-a]pyrazin-6-yl)benzonitrile] | 50 to 100 nM
15 | CN1CCC[C@@H](COc2nc(-c3ccc(C#N)cc3)c(-c3ccc4ncsc4c3)n3cncc23)C1 [Example 33, 4-(5-(1,3-benzothiazol-6-yl)-8-{[(3R)-1-methylpiperidin-3-yl]methoxy}imidazo[1,5-a]pyrazin-6-yl)benzonitrile] | 50 to 100 nM
16 | CC(O)CN1CCC[C@@H](COc2nc(-c3ccc(C#N)cc3)c(-c3cnc4c(cnn4C)c3)n3cncc23)C1 (stereo partly drawn) [Example 39, 4-[8-{[(3R)-1-(2-hydroxypropyl)piperidin-3-yl]methoxy}-5-(1-methyl-1H-pyrazolo[3,4-b]pyridin-5-yl)imidazo[1,5-a]pyrazin-6-yl]benzonitrile] | 100 to 500 nM
17 | Cn1ncc2cc(-c3c(-c4ccc(C#N)cc4)nc(OC[C@@H]4CCCN(CC(C)(C)O)C4)c4cncn34)cnc21 [Example 41, 4-[8-{[(3R)-1-(2-hydroxy-2-methylpropyl)piperidin-3-yl]methoxy}-5-(1-methyl-1H-pyrazolo[3,4-b]pyridin-5-yl)imidazo[1,5-a]pyrazin-6-yl]benzonitrile] | 50 to 100 nM
18 | COC(=O)N(C)c1ccc(-c2c(-c3ccc(C#N)cc3)nc(OC[C@@H]3CCCN(C)C3)c3cncn23)cc1 [Example 46] | 50 to 100 nM
19 | COC(=O)N(C)c1ccc(-c2c(-c3ccc(C#N)cc3)nc(OC[C@@H]3CCCN(C)C3)c3cncn23)cn1 [Example 49] | 100 to 500 nM
20 | CN1C(=O)Cc2cc(-c3c(-c4ccc(C#N)cc4)nc(N4CCC(N(C)C)CC4)c4cncn34)ccc21 [Example 52, 4-[8-[4-(dimethylamino)piperidin-1-yl]-5-(1-methyl-2-oxo-2,3-dihydro-1H-indol-5-yl)imidazo[1,5-a]pyrazin-6-yl]benzonitrile] | 50 to 100 nM
21 | CN(C)C1CCN(c2nc(-c3ccc(C#N)cc3)c(-c3cnc4cccnc4c3)n3cncc23)CC1 [Example 55, 4-[8-[4-(dimethylamino)piperidin-1-yl]-5-(1,5-naphthyridin-3-yl)imidazo[1,5-a]pyrazin-6-yl]benzonitrile] | 50 to 100 nM
22 | CN1CCC[C@@H](COc2cc(-c3ccc(C#N)cc3)c(-c3cnc4cccnc4c3)n3cncc23)C1 [Example 59, (R)-4-(8-((1-methylpiperidin-3-yl)methoxy)-5-(1,5-naphthyridin-3-yl)imidazo[1,5-a]pyridin-6-yl)benzonitrile] | 100 to 500 nM
23 | CN1CCC[C@@H](COc2cc(-c3ccc(C#N)cc3)c(-c3cnc4ccoc4c3)n3cncc23)C1 [Example 60, (R)-4-(5-(furo[3,2-b]pyridin-6-yl)-8-((1-methylpiperidin-3-yl)methoxy)imidazo[1,5-a]pyridin-6-yl)benzonitrile] | 50 to 100 nM
24 | CN1CCC[C@@H](COc2cc(-c3ccc(C#N)cc3)c(-c3cnc4c(c3)CCCO4)n3cncc23)C1 [Example 61, (R)-4-(5-(3,4-dihydro-2H-pyrano[2,3-b]pyridin-6-yl)-8-((1-methylpiperidin-3-yl)methoxy)imidazo[1,5-a]pyridin-6-yl)benzonitrile] | 50 to 100 nM
25 | CCN1CCC[C@@H](COc2cc(-c3ccc(C#N)cc3)c(-c3cnc4c(c3)ncn4C)n3cncc23)C1 [Example 66, (R)-4-(8-((1-ethylpiperidin-3-yl)methoxy)-5-(3-methyl-3H-imidazo[4,5-b]pyridin-6-yl)imidazo[1,5-a]pyridin-6-yl)benzonitrile] | 50 to 100 nM
26 | CCN1CCC[C@@H](COc2cc(-c3ccc(C#N)cc3)c(-c3cnc4c(c3)CCCO4)n3cncc23)C1 [Example 68, (R)-4-(5-(3,4-dihydro-2H-pyrano[2,3-b]pyridin-6-yl)-8-((1-ethylpiperidin-3-yl)methoxy)imidazo[1,5-a]pyridin-6-yl)benzonitrile] | 50 to 100 nM
27 | COc1ncc(-c2c(-c3ccc(C#N)cc3)cc(OC[C@@H]3CCCN(C)C3)c3cncn23)cc1N [Example 69, (R)-4-(5-(5-amino-6-methoxypyridin-3-yl)-8-((1-methylpiperidin-3-yl)methoxy)imidazo[1,5-a]pyridin-6-yl)benzonitrile] | 50 to 100 nM
28 | Cc1ncc(-c2c(-c3ccc(C#N)cc3)nc(OC[C@@H]3CCCN(C)C3)c3cncn23)cc1F [Example 88, 4-(5-(5-fluoro-6-methylpyridin-3-yl)-8-{[(3R)-1-methylpiperidin-3-yl]methoxy}imidazo[1,5-a]pyrazin-6-yl)benzonitrile] | 50 to 100 nM
29 | CN(C)C1CCN(c2nc(-c3ccc(C#N)cc3)c(-c3cnc4ccoc4c3)n3cncc23)CC1 [Example 104, 4-(8-(4-(dimethylamino)piperidin-1-yl)-5-(furo[3,2-b]pyridin-6-yl)imidazo[1,5-a]pyrazin-6-yl)benzonitrile] | 50 to 100 nM
30 | CCN1CCC[C@@H](COc2nc(-c3ccc(C#N)cc3)c(-c3ccc4c(c3)CC(=O)N4C)n3cncc23)C1 [Example 110, 4-[8-{[(3R)-1-ethylpiperidin-3-yl]methoxy}-5-(1-methyl-2-oxo-2,3-dihydro-1H-indol-5-yl)imidazo[1,5-a]pyrazin-6-yl]benzonitrile] | 50 to 100 nM

Source: patent US9695168B2 (Incyte Corporation, priority 2014, dated 2017)
